The record followed here is ChEMBL document CHEMBL1833942, “6-arylcoumarins as novel nonsteroidal type progesterone antagonists: an example with receptor-binding-dependent fluorescence” (J Med Chem, 2011).

The structures appear in SMILES notation. The source made the active and inactive calls. The rule behind the calls is not given here.

Assay [1] has as its target T1, Progesterone receptor (Homo sapiens, UniProt P06401).
T1 sequence (P06401 whole entry): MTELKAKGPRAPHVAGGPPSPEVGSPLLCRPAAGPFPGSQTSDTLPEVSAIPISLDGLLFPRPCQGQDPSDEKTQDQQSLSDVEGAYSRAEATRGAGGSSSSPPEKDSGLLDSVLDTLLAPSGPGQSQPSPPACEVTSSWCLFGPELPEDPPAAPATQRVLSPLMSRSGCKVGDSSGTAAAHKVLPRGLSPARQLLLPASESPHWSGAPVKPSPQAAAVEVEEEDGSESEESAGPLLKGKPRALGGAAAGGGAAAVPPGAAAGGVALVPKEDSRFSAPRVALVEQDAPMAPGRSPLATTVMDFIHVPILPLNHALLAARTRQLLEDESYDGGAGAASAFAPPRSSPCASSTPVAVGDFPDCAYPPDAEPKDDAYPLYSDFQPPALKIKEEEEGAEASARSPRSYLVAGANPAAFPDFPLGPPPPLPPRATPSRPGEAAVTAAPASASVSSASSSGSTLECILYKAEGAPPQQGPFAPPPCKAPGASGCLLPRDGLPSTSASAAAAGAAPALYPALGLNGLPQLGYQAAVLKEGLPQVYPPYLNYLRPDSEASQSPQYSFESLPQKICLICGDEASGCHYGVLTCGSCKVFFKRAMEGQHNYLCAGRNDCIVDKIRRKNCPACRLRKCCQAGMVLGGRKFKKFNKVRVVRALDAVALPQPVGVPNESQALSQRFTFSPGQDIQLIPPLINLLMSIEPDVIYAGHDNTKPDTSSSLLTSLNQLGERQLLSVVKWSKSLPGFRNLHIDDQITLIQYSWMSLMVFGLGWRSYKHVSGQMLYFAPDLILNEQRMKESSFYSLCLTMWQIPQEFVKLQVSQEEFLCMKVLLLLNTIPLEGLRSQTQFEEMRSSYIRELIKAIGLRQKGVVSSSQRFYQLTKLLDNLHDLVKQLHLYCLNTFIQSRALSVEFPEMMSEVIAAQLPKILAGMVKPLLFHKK
Kind of assay: Antagonist activity at human progesterone receptor in T47D cells after 24 hrs by alkaline phosphatase assay. It counts as functional, cell-based.

The target in assay [2] is T2, Progesterone receptor (Homo sapiens) (UniProt P06401).
T2 sequence (whole entry): T1 sequence (P06401 whole entry)
Kind of assay: Antagonist activity at human progesterone receptor expressed in CHO cells at 10^-6 M after 24 hrs by luciferase reporter gene assay. Type of assay: functional, cell-based. On the technique in general: Reporter assays use an easily measured gene product as a stand-in for the process of interest.

In assay [3] the target is T2, Progesterone receptor (Homo sapiens). Kind of assay: Antagonist activity at human progesterone receptor expressed in CHO cells at 10^-5 M after 24 hrs by luciferase reporter gene assay. It counts as functional, cell-based.
For assay [4] the target is unchanged. Kind of assay: Antagonist activity at human progesterone receptor expressed in CHO cells at 10^-7 M after 24 hrs by luciferase reporter gene assay. Type of assay: functional, cell-based.
Assay [5] has as its target T1, Progesterone receptor. Kind of assay: Displacement of [1,2,6,7-3H]PG from human PR-LBD after 24 hrs by liquid scintillation counting.
Assay [6] concerns the target T2, Progesterone receptor (Homo sapiens). Kind of assay: Binding affinity to human PR LBD by fluorescence assay in presence of progesterone.
Assay [7] concerns the target T3, Estrogen receptor (Homo sapiens) (UniProt P03372).
T3 sequence (whole entry): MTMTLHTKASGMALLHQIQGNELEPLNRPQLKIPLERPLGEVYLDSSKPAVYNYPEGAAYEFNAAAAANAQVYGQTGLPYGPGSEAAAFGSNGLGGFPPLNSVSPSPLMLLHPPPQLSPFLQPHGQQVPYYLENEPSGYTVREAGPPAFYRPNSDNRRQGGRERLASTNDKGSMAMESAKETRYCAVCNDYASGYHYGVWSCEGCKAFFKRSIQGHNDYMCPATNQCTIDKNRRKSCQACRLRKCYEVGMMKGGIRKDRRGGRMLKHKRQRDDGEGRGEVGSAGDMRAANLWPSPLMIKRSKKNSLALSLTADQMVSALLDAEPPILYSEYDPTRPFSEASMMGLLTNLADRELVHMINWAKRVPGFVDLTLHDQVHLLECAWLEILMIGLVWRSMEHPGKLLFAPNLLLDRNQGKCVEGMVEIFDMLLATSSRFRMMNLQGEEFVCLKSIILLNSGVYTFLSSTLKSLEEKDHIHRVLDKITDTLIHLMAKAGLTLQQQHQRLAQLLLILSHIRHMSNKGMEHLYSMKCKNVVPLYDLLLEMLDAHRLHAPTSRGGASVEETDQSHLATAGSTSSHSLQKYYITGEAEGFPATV
Nature of the assay: Binding affinity at human estrogen receptor by fluorescence assay.

The target in assay [8] is T4, Androgen receptor (Homo sapiens, UniProt P10275).
T4 sequence (P10275 whole entry): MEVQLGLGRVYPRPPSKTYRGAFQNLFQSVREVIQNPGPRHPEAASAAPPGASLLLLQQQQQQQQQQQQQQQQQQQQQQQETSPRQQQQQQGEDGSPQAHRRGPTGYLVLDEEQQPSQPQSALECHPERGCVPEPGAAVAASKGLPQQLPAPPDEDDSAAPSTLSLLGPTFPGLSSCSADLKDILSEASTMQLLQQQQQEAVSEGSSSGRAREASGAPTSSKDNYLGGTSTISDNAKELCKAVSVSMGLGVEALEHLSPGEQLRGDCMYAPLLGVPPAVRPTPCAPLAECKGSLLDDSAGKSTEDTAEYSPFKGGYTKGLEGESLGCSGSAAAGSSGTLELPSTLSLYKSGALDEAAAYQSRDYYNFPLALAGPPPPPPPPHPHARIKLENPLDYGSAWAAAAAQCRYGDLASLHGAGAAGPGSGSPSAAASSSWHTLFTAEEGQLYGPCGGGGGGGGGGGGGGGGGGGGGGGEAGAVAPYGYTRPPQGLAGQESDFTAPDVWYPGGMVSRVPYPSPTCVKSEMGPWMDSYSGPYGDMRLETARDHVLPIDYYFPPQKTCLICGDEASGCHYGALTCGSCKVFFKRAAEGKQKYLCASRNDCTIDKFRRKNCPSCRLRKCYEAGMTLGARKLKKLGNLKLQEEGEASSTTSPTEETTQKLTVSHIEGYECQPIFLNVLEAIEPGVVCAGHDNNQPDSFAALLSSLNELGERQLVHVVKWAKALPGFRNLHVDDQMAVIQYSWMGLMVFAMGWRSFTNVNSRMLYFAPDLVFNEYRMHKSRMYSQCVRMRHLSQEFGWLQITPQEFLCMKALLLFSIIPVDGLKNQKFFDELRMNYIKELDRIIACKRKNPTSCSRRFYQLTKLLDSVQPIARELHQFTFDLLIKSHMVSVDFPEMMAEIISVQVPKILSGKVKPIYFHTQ
Kind of assay: Displacement of [3H]DHT from human recombinant androgen receptor-LBD expressed in Escherichia coli after 18 hrs by liquid scintillation counting. (In general: Loss of bound radioactivity is the signal in a displacement assay; it reports binding, not function.)

The target of assay [9] is T2, Progesterone receptor (Homo sapiens). Kind of assay: Binding affinity to human PR LBD by fluorescence assay.
The target in assay [10] is T5, Glucocorticoid receptor (Homo sapiens, UniProt P04150).
T5 sequence (P04150 whole entry): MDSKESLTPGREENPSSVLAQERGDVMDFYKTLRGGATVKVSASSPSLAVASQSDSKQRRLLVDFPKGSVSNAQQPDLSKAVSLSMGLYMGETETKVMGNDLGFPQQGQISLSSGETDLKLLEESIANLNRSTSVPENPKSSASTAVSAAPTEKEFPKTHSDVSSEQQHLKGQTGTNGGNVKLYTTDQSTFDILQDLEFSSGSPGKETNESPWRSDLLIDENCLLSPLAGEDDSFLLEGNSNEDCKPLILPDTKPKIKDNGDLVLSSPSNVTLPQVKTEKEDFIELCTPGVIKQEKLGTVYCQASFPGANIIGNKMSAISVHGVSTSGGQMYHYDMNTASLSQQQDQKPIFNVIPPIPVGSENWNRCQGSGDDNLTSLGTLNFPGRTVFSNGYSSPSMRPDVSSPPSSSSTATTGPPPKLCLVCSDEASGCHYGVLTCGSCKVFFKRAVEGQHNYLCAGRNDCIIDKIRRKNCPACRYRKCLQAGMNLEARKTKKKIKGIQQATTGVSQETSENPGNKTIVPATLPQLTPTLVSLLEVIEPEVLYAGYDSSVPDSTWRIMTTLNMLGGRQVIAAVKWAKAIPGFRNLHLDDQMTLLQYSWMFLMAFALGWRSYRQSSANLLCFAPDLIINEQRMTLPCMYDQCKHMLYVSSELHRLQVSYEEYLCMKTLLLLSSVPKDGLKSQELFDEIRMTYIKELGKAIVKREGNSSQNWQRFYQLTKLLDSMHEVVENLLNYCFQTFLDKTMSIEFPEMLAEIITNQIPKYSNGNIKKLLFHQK
Nature of the assay: Displacement of [3H]-dexamethasone from human recombinant glucocorticoid receptor after 18 hrs by liquid scintillation counting.

In general, IC50 refers to the concentration that gives 50% inhibition. In turn, `CCN(CC)c1cc2oc(=O)ccc2cc1-c1ccc(C#N)cc1` showed an IC50 in assay [1] of 500 nM.

`Cn1c(C#N)ccc1-c1ccc2oc(=O)ccc2c1`: the outcome in assay [2], in assay [3] and in assay [4] was Active. In addition, the IC50 in assay [5] was 15200 nM; in [1], 65 nM.

`CCN(CC)c1cc2oc(=O)ccc2cc1-c1ccccc1`: the result in assay [6] and in assay [7] was inactive. In addition, the outcome in assay [2], in assay [3], in assay [4] and in [9] was Active. The half-maximal inhibitory concentration (IC50) turned out to be 10000 nM in assay [8], 1420 nM in [5], 500 nM in [1] and 3540 nM in [10].

`CCOC(=O)c1cc2cc(-c3ccccc3)c(N(CC)CC)cc2oc1=O` had an IC50 in assay [1] of 4070 nM.

In the case of `CCN(CC)c1cc2oc(=O)ccc2cc1-c1ccc(N)c([N+](=O)[O-])c1`, in assay [1], the IC50 came out at 510 nM.

In assay [1], `CCN(CC)c1cc2oc(=O)ccc2cc1-c1ccc([N+](=O)[O-])cc1` registered a 50% inhibitory concentration (IC50) of 860 nM.

The molecule `CN(C)c1ccc(-c2cc3ccc(=O)oc3cc2O)cc1` gave an IC50 in assay [1] of 2590 nM.

The molecule `CN(C)c1ccc(-c2ccc3oc(=O)ccc3c2)cc1` came in with an IC50 in [1] of 310 nM.

`O=c1ccc2cc(-c3ccccc3)c(O)cc2o1` registered an IC50 in [1] of 1280 nM.

Molecule `O=c1ccc2cc(-c3ccccc3)ccc2o1` registered a 50% inhibitory concentration (IC50) in assay [1] of 510 nM.

As for `O=c1ccc2cc(-c3ccc(Cl)s3)ccc2o1`, the result in [2], in assay [3] and in assay [4] was Active. Moreover, the IC50 in assay [5] stood at 50500 nM; in [1], 120 nM.

In [1], `CCN(CC)c1cc2oc(=O)ccc2cc1-c1ccc(F)cc1` showed a 50% inhibitory concentration (IC50) of 630 nM.

`CN(C)c1cc2oc(=O)ccc2cc1-c1ccccc1` yielded an IC50 in [1] of 360 nM.

In the case of `O=c1ccc2cc(-c3cccc(-c4cccnc4)c3)ccc2o1`, in assay [1], inhibition was half-maximal at 27900 nM (IC50).

In the case of `N#Cc1ccc(-c2ccc3oc(=O)ccc3c2)cc1`, the IC50 in assay [1] came out at 290 nM.

Consider `CCN(CC)c1cc2oc(=O)ccc2cc1-c1ccc(N(C)C)cc1`, for which inhibition in assay [1] was half-maximal at 390 nM (IC50).

As to `CCN(CC)c1cc2oc(=O)ccc2cc1-c1ccc(C(C)=O)cc1`, the 50% inhibitory concentration (IC50) in [1] worked out at 400 nM.

Molecule `O=c1ccc2cc(-c3ccco3)ccc2o1` registered an IC50 in assay [1] of 1280 nM.

`CCN(CC)c1cc2oc(=O)ccc2cc1-c1cccc(C#N)c1` came in with an IC50 in assay [1] of 380 nM.

Molecule `N#Cc1cccc(-c2ccc3oc(=O)ccc3c2)c1` displayed an IC50 in [1] of 1110 nM.

Molecule `COc1cc2oc(=O)ccc2cc1-c1ccccc1` gave a half-inhibitory concentration (IC50) in [1] of 880 nM.

For `COc1cc2oc(=O)ccc2cc1-c1ccc(N(C)C)cc1`, the midpoint of inhibition in assay [1], the IC50, lay at 3340 nM.

With `CCN(CC)c1cc2oc(=O)ccc2cc1-c1cccs1`, the outcome in [2], in assay [3] and in [4] was Active. Also, the IC50 in [8] was found to be 9700 nM; in assay [5], 1240 nM; in [1], 220 nM; in assay [10] it was 4960 nM.

The molecule `O=c1ccc2cc(-c3cc(F)cc(F)c3)ccc2o1` registered a concentration for half-maximal inhibition (IC50) in [1] of 560 nM.

On to `CCN(CC)c1cc2oc(=O)ccc2cc1-c1ccc(Cl)cc1`, for which the 50% inhibitory concentration (IC50) in assay [1] came out at 770 nM.

Molecule `O=c1ccc2cc(-c3cccc(C(F)(F)F)c3)ccc2o1` returned a half-inhibitory concentration (IC50) in assay [1] of 190 nM.

For the molecule `CCN(CC)c1cc2oc(=O)ccc2cc1-c1ccc(NC(C)=O)cc1`, in assay [1], the half-maximal inhibitory concentration (IC50) came to 470 nM.

With `O=c1ccc2cc(-c3cccs3)ccc2o1`, the result in [2], in assay [3] and in assay [4] was Active. Also, the half-inhibitory concentration (IC50) in [5] stood at 10000 nM; in [1], 540 nM.

For the molecule `CN(C)c1cc2oc(=O)ccc2cc1-c1ccc(F)cc1`, the half-inhibitory concentration (IC50) in assay [1] was 470 nM.

The molecule `CN(C)c1cc2oc(=O)ccc2cc1-c1cccc(C#N)c1` had a concentration for half-maximal inhibition (IC50) in assay [1] of 260 nM.

Turning to `CN(C)c1cc2oc(=O)ccc2cc1-c1ccc(C#N)cc1`, the IC50 in assay [1] was 250 nM.

With `O=c1ccc2cc(-c3ccc(F)cc3)ccc2o1`, in assay [1], the half-inhibitory concentration (IC50) is 210 nM.
